From the NIST ThermoML archive (doi:10.1016/j.jct.2014.03.022)
Numbers after ± are expanded uncertainties.

Legend:
[1] = refractive index (Na D-line) (dimensionless); details: 293.15 K; 101.33 kPa; Liquid; Standard Abbe refractometry
[2] = for surface tension liquid-gas: Wilhelmy plate method; for viscosity: 101.3 kPa, Liquid, Concentric cylinders viscometry
[3] = xn = mol fraction of the nth substance listed; details: x1 = 1; for surface tension liquid-gas: Wilhelmy plate method; for viscosity: 101.3 kPa, Liquid, Concentric cylinders viscometry

refractive index [1] | surface tension liquid-gas ([2]; 298.15 K) [mN/m] | viscosity ([2]; 298.15 K) [mPa·s] | surface tension liquid-gas ([2]; 303.15 K) [mN/m] | viscosity ([2]; 303.15 K) [mPa·s] | surface tension liquid-gas ([2]; 308.15 K) [mN/m] | viscosity ([2]; 308.15 K) [mPa·s] | surface tension liquid-gas ([2]; 313.15 K) [mN/m] | viscosity ([2]; 313.15 K) [mPa·s] | surface tension liquid-gas ([3]; 298.15 K) [mN/m] | viscosity ([3]; 298.15 K) [mPa·s] | surface tension liquid-gas ([3]; 303.15 K) [mN/m] | viscosity ([3]; 303.15 K) [mPa·s] | surface tension liquid-gas ([3]; 308.15 K) [mN/m] | viscosity ([3]; 308.15 K) [mPa·s] | surface tension liquid-gas ([3]; 313.15 K) [mN/m] | viscosity ([3]; 313.15 K) [mPa·s] | SMILES
1.429 ± 0.001 | 35.2 ± 0.5 | 0.8162 ± 0.017 | 34.1 ± 0.5 | 0.7678 ± 0.016 | 33 ± 0.5 | 0.7262 ± 0.016 | 32 ± 0.5 | 0.678 ± 0.015 |  |  |  |  |  |  |  |  | CN(C)C=O [dimethylformamide]
1.429 ± 0.001 | 27.47 ± 0.52 | 7.661 ± 0.16 | 26.42 ± 0.52 | 6.402 ± 0.13 | 25.41 ± 0.52 | 5.425 ± 0.11 | 24.38 ± 0.52 | 4.628 ± 0.097 |  |  |  |  |  |  |  |  | CCCCCCCCO [octan-1-ol]
 |  |  |  |  |  |  |  |  | 35.2 ± 0.5 | 0.8162 ± 0.017 | 34.1 ± 0.5 | 0.7678 ± 0.016 | 33 ± 0.5 | 0.7262 ± 0.016 | 32 ± 0.5 | 0.678 ± 0.015 | CN(C)C=O [dimethylformamide] + CCCCCCCCCO
1.433 ± 0.001 | 27.58 ± 0.57 | 9.715 ± 0.22 | 26.53 ± 0.57 | 7.927 ± 0.18 | 25.49 ± 0.56 | 6.664 ± 0.15 | 24.44 ± 0.56 | 5.645 ± 0.13 |  |  |  |  |  |  |  |  | CCCCCCCCCO [nonan-1-ol]
1.437 ± 0.001 | 28.35 ± 0.52 | 11.83 ± 0.25 | 27.29 ± 0.52 | 9.754 ± 0.2 | 26.23 ± 0.52 | 8.135 ± 0.17 | 25.17 ± 0.52 | 6.842 ± 0.14 |  |  |  |  |  |  |  |  | CCCCCCCCCCO [decan-1-ol]
 |  |  |  |  |  |  |  |  | 35.2 ± 0.5 | 0.8162 ± 0.017 | 34.1 ± 0.5 | 0.7678 ± 0.016 | 33 ± 0.5 | 0.7262 ± 0.016 | 32 ± 0.5 | 0.678 ± 0.015 | CN(C)C=O [dimethylformamide] + CCCCCCCCCCO
 |  |  |  |  |  |  |  |  | 35.2 ± 0.5 | 0.8162 ± 0.017 | 34.1 ± 0.5 | 0.7678 ± 0.016 | 33 ± 0.5 | 0.7262 ± 0.016 | 32 ± 0.5 | 0.678 ± 0.015 | CN(C)C=O [dimethylformamide] + CCCCCCCCO
